# Patent US20090117545A1 (priority 2004, published 2009)
# Where “and” joins values, the source holds several entries; their conditions need not be identical. Identical values can stand only once. Entries after “also recorded” stand apart in the source; their conditions may differ.
# What was measured:
# [1] = system: VC I-II RNA (tandem type I and type II glycine aptamers, VC1422 gene); test: In-line probing of VC I-II RNA; format: binding, Vibrio cholerae; conditions: for structural modulation (change in pattern of spontaneous cleavage) of VC I-II: ligand at 1 mM
# Protocol: In-line probing of the VC I-II construct (FIG. 1B), derived from the VC1422 gene from V. cholerae, was carried out with trace amounts of 5′ ^32P-labeled RNA using methods that are similar to those described elsewhere in Nahvi et al., Chem. Biol. 9, 1043 (2002), and Winkler et al., Nature 419, 952 (2002). RNAs were prepared by transcription from the appropriate DNA template carrying a T7 RNA polymerase promoter, which was generated by PCR from V. cholerae (C6706-st2) genomic DNA using the primers 5′-[sequence]-[sequence] […] The underlined nucleotides identify sequences corresponding to the promoter for T7 RNA polymerase.
# In a typical in line probing assay, ˜15 nM of labeled RNA is incubated in buffer (20 mM MgCl2, 50 mM Tris, pH 8.3 at 25° C., 100 mM KCl) in the absence or presence of ligand for 40 hrs at 23° C. After incubation, spontaneously cleaved products were separated using 10% denaturing PAGE and were visualized and quantitated using a PhosphorImager (Molecular Dynamics).
# Lowercase letters in FIG. 1B and FIG. 8A identify nucleotides that were added to the construct to permit efficient transcription in vitro using RiboMAX transcription (Promega). For the data presented in FIG. 5, fraction bound equals 1 minus the normalized fraction cleaved in the in-line probing assay at U207-C208 for VC II and U74 for VC I-II.
# Curves for the absence of cooperativity (blue curve, n=1) and presence of perfect cooperativity at two binding sites (orange curve, n=2) are depicted. […] The fraction of RNA cleaved at four regions in both RNA constructs was determined by in-line probing. The amount of cleavage was normalized to range from 0 to 1 using the minimum and maximum amounts cleaved for each region.
# VC I-II RNA = test: Equilibrium dialysis with 3H-glycine, VC I-II RNA; format: binding, Vibrio cholerae; conditions: for restoration of equal distribution of 3H-glycine by unlabeled competitor: VC I-II 100 μM, excess (1 mM) unlabeled competitor after preequilibration
# Protocol: (§1) Methods used for equilibrium dialysis were similar to those described in Mandal et al., Cell 113, 577 (2003). Specifically, equilibrium dialysis assays were conducted using a DispoEquilibrium Dialyzer (Harvard Biosciences), wherein chamber a and b are separated by a 5,000 MWCO membrane. […] Chamber b contained VC II or VC I-II RNA transcripts at 100 μM concentration suspended in the same buffer. Equilibrations were allowed to proceed for 10 hrs at 23° C. Subsequently 5 μL of sample was drawn from each chamber and quantitated by liquid scintillation counting. […] For both RNAs, experiments i-iii (FIG. 4B) were conducted by first pre-equilibrating the chambers (left data point), and then adding unlabeled competitor as indicated followed by a second equilibration (right data point). RNAs were prepared by in vitro transcription using the appropriate PCR DNA templates as described above.
# (§2) Other notations are the same as those described for FIG. 1C.
# [2] = system: gcvT 5'-UTR glycine riboswitch; test: Single-round in vitro transcription termination assay; format: biochemical, Bacillus subtilis; conditions: for effect on production of full-length RNA transcripts: single-round in vitro transcription
# Protocol: Transcription termination assays were conducted as described previously (Sudarsan et al., Genes Dev. 17, 2688 (2003); Landick et al., Methods Enzymol. 274, 334 (1996)).
# Transcription assays were performed using a method adapted from that described earlier (Edelstein, Annu. Rev. Biochem. 44, 209 (1975)). […] DNA templates encompassing nucleotides −406 to +7 relative to the translation start site for the gcvT operon in B. subtilis were used. Transcription assays included 20 mM Tris-HCl (pH 8.0 at 23° C.), 20 mM NaCl, 14 mM MgCl2, 0.1 mM EDTA, 0.01 mg/mL BSA, and 1% v/v glycerol. Each reaction (10 μL) contained 1 pmole of template DNA and 9 U E. coli RNA polymerase (Epicenter) and was conducted with the type and concentration of target molecule as indicated for each experiment. Transcription was initiated by the addition of the dinucleotide ApA (135 μM), GTP and UTP (2.5 μM each), ATP (1 μM), and [α-^32P]-ATP (4_Ci). After 5 min incubation at 37° C., 50 μM of each NTP was added along with 0.1 mg/mL heparin to prevent re-initiation by RNA polymerase. Transcription products generated after a 10 minute incubation were separated by denaturing 6% PAGE and visualized by using a PhosphorImager. […] Single-round transcription assays were conducted as described for FIG. 9A. […] Single-round transcription assays were conducted as described for FIG. 9A with 50 μM rNTPs.
# VC II RNA = test: Equilibrium dialysis with 3H-glycine, VC II RNA; format: binding, Vibrio cholerae; conditions: for restoration of equal distribution of 3H-glycine by unlabeled competitor: VC II 100 μM, excess (1 mM) unlabeled competitor after preequilibration
# Protocol: as §1, §2
# [3] = system: wild-type gcvT IGR fused to β-galactosidase reporter gene; conditions: amino acid present in growth medium
# Excerpt: Specifically, nucleotides −429 to +7 relative to the B. subtilis gcvT translation start site of the first open reading frame of the gcvT operon was PCR amplified as an EcoRI-BamHI fragment from B. subtilis strain 1A2 (Bacillus Genetic Stock Center, Columbus, Ohio). The wild type construct was cloned into pDG1661 at a site directly upstream of the lacZ reporter gene. […] The IGR used for this study (FIG. 8A) differed in sequence at three nucleotides (151-153, TTT to AAA) relative to the genomic database. Plasmids generated were integrated into the amyE locus of strain 1A2. Transformants were selected for chloramphenicol (5 μg/ml) resistance and screened for sensitivity to spectinomycin (100 μg/ml). Cells were grown in defined media (0.5% w/v glucose, 2 g/L (NH4)2SO4, 25 g/L K2HPO4-3H2O, 6 g/L KH2PO4, 1 g/L sodium citrate, 0.2 g/L MgSO4-7H2O, 2 μM MnCl2, 15 mM glutamate, and 5 mg/L chloramphenicol) to an A595 of 0.1, pelleted, and resuspended in minimal media supplemented with 500 μg/L of amino acid as indicated for each experiment. Cultures were incubated for an additional 3 hr and β-galactosidase assays were performed as described previously (Miller, A Short Course in Bacterial Genetics (Cold Spring Harbor Laboratory Press, Cold Spring Harbor, N.Y., 1992)). Miller units plotted are the average of six values (three assays conducted in duplicate).
# [4] = system: VC II RNA (type II glycine aptamer alone); test: In-line probing of VC II RNA; format: binding, Vibrio cholerae; conditions: for EC50: in-line probing, read-out: concentration of ligand needed to cause half-maximal structure modulation of VC II
# [5] = system: variant VC I-II construct wherein aptamer II has been mutated; conditions: relative to wild-type VC I-II
Structure (SMILES),structural modulation (change in pattern of spontaneous cleavage) of VC I-II [1],restoration of equal distribution of 3H-glycine by unlabeled competitor (VC I-II RNA),effect on production of full-length RNA transcripts [2],restoration of equal distribution of 3H-glycine by unlabeled competitor (VC II RNA),EC50 [4],also measured
C[C@H](N)C(=O)O [L-alanine],did not induce change,failed to restore equal distribution,failed to trigger an increase,failed to restore equal distribution,–,expression of β-galactosidase reporter [3]: low amount of gene expression
N[C@@H](CO)C(=O)O [L-serine],–,failed to restore equal distribution,rejected; also recorded: failed to trigger an increase,failed to restore equal distribution,–,–
NCC(=O)NO [glycine hydroxamate],–,–,–,–,~1000 µM,–
COC(=O)CN [glycine methyl ester],measurable structural modulation,–,–,–,~100 µM,–
"CC(C)(C)OC(=O)CN [glycine tertiary butyl ester, glycine tert-butyl ester]",measurable structural modulation,–,–,–,~1000 µM,–
NCC(=O)O [glycine],caused changes in the pattern of spontaneous cleavage,restored an equal distribution,substantial increase in the amount of full-length RNA transcript,restored an equal distribution,~10 µM,"increase in glycine concentration for change from 10% to 90% ligand-bound RNA ([1]; VC I-II): 10 fold; Hill coefficient n ([1]; VC I-II, best fit of four regions, maximum for two sites is 2): 1.64 and 1.64±0.07; Kd ([1]; VC I-II, best fit of four regions, read-out: constant K of Hill equation): 40 ± 1 µM; Hill constant n ([4]; VC II, best fit of four regions): 0.97±0.04; Kd ([4]; VC II, best fit of four regions, read-out: constant K of Hill equation): 24 ± 12 µM; increase in glycine concentration for change from 10% to 90% ligand-bound RNA ([4]; single aptamer RNA, printed as VC I RNA): 100 fold; increase in the amount of glycine bound by RNA (VC I-II RNA; one equivalent of VC I-II RNA (two aptamer equivalents) versus VC II, 2 expected): 1.6 fold; glycine concentration at which full-length transcripts are favored ([2]; added to transcription mixture): > 10 µM; Hill coefficient of best-fit curve to transcription data ([2]; yield of full-length transcripts versus glycine): 1.4; loss of affinity in the unaltered aptamer I [5]: more than 1,000 fold; equivalents of glycine bound by RNA (VC II RNA; three equivalents of glycine versus one equivalent of VC II RNA (100 μM), 1 expected): 0.8 equivalents"
